These results are taken from patent US4835155A, “Process for protection of brain cells” (Nippon Chemiphar Co., Ltd., priority 1986, dated 1989).

Where a name gives a salt, the structure may show the parent alone.

Data set [1] in a line: Acute toxicity, oral, observed for seven days. The following applies: in vivo, ddN male mouse about 20 g.
Data set [2] relates to brain cells (delayed neuronal damage). The conditions noted are these: Kirino et al., Progress in Brain Research, vol. 63: 39-58 (1985); cited from earlier work.
The conditions of data set [3]: pentobarbital acts nonselectively; cited from earlier work.

By LD50 is commonly meant the dose at which mortality reaches 50%.

Turning to `COc1cc(C(O)CN2CCN(C(c3ccccc3)c3ccccc3)CC2)cc(OC)c1OC` (stereo not shown) [B, 2(4-diphenylmethylpiperazinyl)-1-(3,4,5-trimethoxyphenyl)ethanol monohydrochloride], the LD50 at 168 h in data set [1] is > 2000 mg/kg.

In the case of `Oc1ccc(C(O)CN2CCN(C(c3ccccc3)c3ccccc3)CC2)cc1` (stereo not shown) [C, 2(4-diphenylmethylpiperazinyl)-1-(4-hydroxyphenyl)ethanol monohydrochloride], the median lethal dose (LD50) at 168 h in data set [1] is > 2000 mg/kg.

For `CCCC(C)C1(CC)C(=O)NC(=O)NC1=O` (stereo not shown) [pentobarbital], in data set [2], the “Effect of protection of brain cells / suppression of delayed neuronal damage” value is listed as “markedly suppress the above-mentioned delayed neuronal damage”. Besides, the “Action on central nervous system” value in data set [3] was “the action of central nervous system is also strongly subsided”.
